Entries after “also recorded” stand apart in the source; their conditions may differ.
Tests used:
[1] = test system: chronic hypoxic-pulmonary artery hypertension (CH-PAH); experiment: Echocardiography: right ventricular (RV) wall thickness in CH rats; assay type: in vivo, rat
Description: The rat model experiments were performed as follows. Adult male Wistar rats (220-240 g) were randomized into five groups. […] Intravascular administration was performed via the catheter inserted in the right jugular vein.
To perform this procedure, the rats were first anaesthetized.

systemic circulation = experiment: Systemic circulation and cardiac function (systemic blood pressure, heart rate, cardiac output)
Description: To determine the effect of the chronic hypoxia treatment-induced CH-PAH and to determine the effect of DHEA administration on PAP, the following PAP measurement method was used. Rats were anaesthetized with ketamine 50 mg/kg and xylazine 10 mg/kg by i.p. injection. Mean PAP was measured with 2.5-F catheters inserted into the right jugular vein in closed-chest rats (Bonnet, S., et al. (2002) Cardiovasc. Res. 53, 1019-1028, which is incorporated by reference herein in its entirety). The effect of DHEA on the systemic blood pressure was controlled by another catheter placed into the left carotid artery. Throughout all the experiments, heart rate and oxygen saturation were monitored. Acute hypoxic stress with fraction of inspired O2 of 10% were applied by administration of an air plus nitrogen gas mixture. The fraction of inspired O2 was monitored with an oxygen analyzer (Servomex, Crowborough, Great Britain), and the effects on the PAP were measured over a 10-15 minute period.
Echocardiography measurements were also performed to determine differences between the treated and control rats. To perform this procedure, the rats were first anaesthetized. After thorax epilation, the animals were placed in the left lateral decubitus position. Resting echocardiography measurements were performed at ambient conditions by using a SONOS 5500 (Philips) echocardiograph and a 12-MHz sector scare transducer. Right and left ventricle wall thickness was measured on M-mode tracings following the recommendations of the American Society of Echocardiology as described by Jones et al. ((2002) Am. J. Physiol. 283, H364-H371). Right cardiac output was evaluated by measuring the electrical R-R delay, the PA diameter, and the velocity time integral (VTI) of PA flux.

IPA wall = experiment: CH-induced intrapulmonary artery (IPA) wall remodeling, media layer thickness; assay type: in vivo, rat
Description: Lung sections were formalin-fixed in preparation for histology studies. PA external diameter (PAED), PA internal diameter (PAID), and percentage vessel wall thickness (PAED−PAID)/PAED×100) were measured in small- and medium-sized PAs (80-150 μm). Each group was comprised of four rats, and 10 measures were made per rat by an investigator blinded to the treatment groups.
CH induces remodeling of the intrapulmonary artery (IPA) in the rat model of CH-PAH. To examine the changes in the IPA wall upon CH exposure, the following method was performed. Isometric contractions were measured in rings from IPAs that were mounted in vertical 5-ml organ baths of a computerized isolated organ bath system (IOX, EMKA Technologies, Paris), as described in Bonnet, S., et al. (2001, Am. J. Physiol. 281, L183-L192, which is incorporated by reference herein in its entirety). Baths were filled with Krebs-Henseleit solution (composition in mM: 118.4 NaCl/4.7 KCl/2.5 CaCl2/1.2 MgSO4/1.2 KH2PO4/25 NaHCO3/11.1 D-glucose, pH 7.4). The baths were maintained at 37° C. and bubbled with a 95% O2/5% CO2 gas mixture. The tissues were set at optimal length by equilibration against a passive load of 10 mN for rings obtained from normoxic rats and 20 mN for rings obtained from hypoxic rats (Jones, J. E., et al. (2002) Am. J. Physiol. 283, H364-H371, which is incorporated by reference herein in its entirety). A cumulative concentration-response curve was then constructed. A concentration increment was made once the maximal contractile effect of the preceding concentration had been recorded.

PASMCs from CH rats = experiment: In vitro DHEA treatment of PASMCs, resting [Ca2+]i, with K channel blockers and pathway inhibitors; assay type: cell-based, rat
Description: The heart and lungs were removed and intrapulmonary arteries (IPAs) (150-300 μm of internal diameter) were then dissected. The adventitial and intimal layers were removed. For contraction experiments, rings (3 mm in length) were prepared.
As mentioned earlier, Ca^2+ is thought to play an important role in the response to chronic hypoxia. To measure the effects of DHEA on [Ca^2+]i of individual PASMCs, a [Ca^2+]i-sensitive fluorophore, indo-1 (Calbiochem, San Diego, Calif.), was employed. […] The recording system included a Nikon Diaphot inverted microscope fitted with epifluorescence.
To further examine how DHEA functions to decrease the [Ca^2+]i in PASMCs, the following experiment was performed.

BKCa = target: T1, BKCa (Homo sapiens, UniProt Q12791); conditions: hypoxic human pulmonary cells, Peng et al. 1999; cited from earlier work
T1 construct: host or cells: hypoxic human pulmonary cells
T1 sequence (Q12791 whole entry): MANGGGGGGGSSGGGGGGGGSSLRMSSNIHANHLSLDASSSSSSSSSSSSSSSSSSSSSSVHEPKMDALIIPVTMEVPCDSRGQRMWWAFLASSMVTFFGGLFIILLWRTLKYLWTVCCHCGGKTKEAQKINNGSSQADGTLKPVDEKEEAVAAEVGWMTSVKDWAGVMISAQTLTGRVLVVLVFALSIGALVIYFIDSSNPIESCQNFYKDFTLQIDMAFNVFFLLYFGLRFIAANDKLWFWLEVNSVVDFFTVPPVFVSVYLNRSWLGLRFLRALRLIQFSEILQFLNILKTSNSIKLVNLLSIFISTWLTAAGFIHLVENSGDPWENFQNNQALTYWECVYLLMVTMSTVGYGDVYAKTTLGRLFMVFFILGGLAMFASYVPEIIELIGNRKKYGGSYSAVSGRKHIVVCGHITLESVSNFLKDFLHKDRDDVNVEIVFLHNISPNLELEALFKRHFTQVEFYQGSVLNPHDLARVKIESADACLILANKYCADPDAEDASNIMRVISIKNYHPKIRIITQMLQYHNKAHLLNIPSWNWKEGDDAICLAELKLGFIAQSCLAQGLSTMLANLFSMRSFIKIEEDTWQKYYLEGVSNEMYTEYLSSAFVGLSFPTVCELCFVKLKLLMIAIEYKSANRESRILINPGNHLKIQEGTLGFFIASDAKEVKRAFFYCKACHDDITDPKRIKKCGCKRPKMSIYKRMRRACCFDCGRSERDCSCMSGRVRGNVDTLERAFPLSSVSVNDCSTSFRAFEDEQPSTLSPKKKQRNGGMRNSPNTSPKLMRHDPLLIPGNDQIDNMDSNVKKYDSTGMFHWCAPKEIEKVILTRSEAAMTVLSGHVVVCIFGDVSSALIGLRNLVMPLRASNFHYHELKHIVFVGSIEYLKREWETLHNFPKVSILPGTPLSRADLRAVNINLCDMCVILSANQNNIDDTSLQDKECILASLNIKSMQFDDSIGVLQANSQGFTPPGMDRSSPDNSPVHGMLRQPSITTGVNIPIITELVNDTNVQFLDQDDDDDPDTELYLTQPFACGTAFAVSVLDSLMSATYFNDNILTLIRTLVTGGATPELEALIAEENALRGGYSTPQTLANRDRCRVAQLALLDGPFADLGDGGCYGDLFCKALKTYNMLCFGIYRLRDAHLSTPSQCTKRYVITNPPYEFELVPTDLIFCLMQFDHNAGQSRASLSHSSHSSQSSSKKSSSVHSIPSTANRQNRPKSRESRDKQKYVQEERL

[2] = one week oral DHEA treatment in CH rats

C[C@]12CC[C@H](O)CC1=CC[C@@H]1[C@@H]2CC[C@]2(C)C(=O)CC[C@@H]12 [DHEA, dehydroepiandrosterone]
RV wall thickness ([1]; CH-DHEA rats, oral DHEA during 3 wk hypoxia, untreated CH 2.74±0.5): 1.6±0.03 mm
RV wall thickness, CH-DHEA vs control rats ([1]; after 1 or 2 wk of hypoxia exposure with oral DHEA): no difference
effect on RV wall thickness / right ventricle hypertrophy (prevention) ([1]; oral DHEA for 3 weeks during chronic hypoxia): significant preventive effect; also recorded: decreased; also recorded: almost entirely prevent
effect on RV wall thickness ([1]; oral DHEA, normoxic rats): no effect
RV wall thickness ([1]; rats 3 weeks in CH, oral DHEA during the last week, no DHEA 2.97±0.4): 1.91±0.2 mm
cardiac output (systemic circulation; [2]): did not affect
heart rate (systemic circulation; [2]): did not affect
systemic pressure (systemic circulation; [2]): did not affect
cardiac output (systemic circulation; oral DHEA 3 weeks): No significant changes
heart rate (systemic circulation; oral DHEA 3 weeks): No significant changes
cardiac function (systemic circulation; oral DHEA 3 weeks, CH-DHEA rats (FIG. 1 D and E)): did not affect
systemic blood pressure / systemic circulation (systemic circulation; oral DHEA 3 weeks, control, DHEA treated and untreated groups): No significant changes; also recorded: did not affect
increase in media layer thickness compared with control rats (IPA wall; CH-DHEA rats, 3 weeks, CH untreated 33%): 11%
effect on PA wall remodeling (prevention) (IPA wall; oral DHEA 3 weeks during CH): significant protective effect; also recorded: almost entirely prevent; also recorded: prevented the PA wall remodeling
effect on PA wall remodeling (reversal) (IPA wall; oral DHEA during last week of 3 weeks CH): partially but significantly reversed; also recorded: decreased the PA remodeling
effect on [Ca2+]i (PASMCs from CH rats; DHEA 100 μM, PASMCs from normoxic, normoxic-DHEA and CH-DHEA rats): did not alter
resting [Ca2+]i value (PASMCs from CH rats; PASMCs from CH rats, 15 minute in vitro 100 μM DHEA, before 143±7): 82 ± 3 nM
effect on resting [Ca2+]i (PASMCs from CH rats; PASMCs from CH rats, in vitro DHEA 100 μM): significant decrease; also recorded: decrease of the resting [Ca^2+]i
action on BKCa (BKCa): BKCa opener
